Measurements published in ChEMBL document CHEMBL1157539, “Thousands of chemical starting points for antimalarial lead identification” (Nature, 2010).

Tested on: Plasmodium falciparum
Assay: GSK_TCMDC: Inhibition of Plasmodium falciparum 3D7 in whole erythrocytes, using parasite LDH activity as an index of growth.
Assay type: functional, organism-based
Conditions: Plasmodium falciparum, 3D7

| Structure (SMILES) | XC50 |
| --- | --- |
| CC(=O)Nc1ccc(OCCN(CC(C)C)c2ccc(C(F)(F)F)c(C#N)c2)c(Cl)c1 | 308 nM |
| COc1ccc(NC(=O)CCNc2cc(C)nc(NCCc3ccccc3)n2)cc1 | 1160 nM |
| Cc1ccc(C(=O)NC2CC2)cc1-c1ccc2c(cnn2S(=O)(=O)c2ccc(F)cc2)c1 | 289 nM |
| O=C(Nc1ccc(OC2CCN(Cc3ccc(F)cc3)CC2)c(Cl)c1)c1cccs1 | 318 nM |
| COc1cccc2cc(C(=O)N[C@@H](CC(C)C)C(=O)N[C@H](C=NNC(=O)OC(C)(C)C)CC(C)C)oc12 | 905 nM |
| O=C(Nc1cccc(-c2csc(-c3nc4ccccc4[nH]3)c2)c1)c1ccncc1 | 256 nM |
| CCc1cn2c3c(cc(C(=O)N[C@@H](Cc4ccccc4)[C@H](O)CNC4CCOCC4)cc13)N(C)S(=O)(=O)C2 | 87.7 nM |
| COc1cccc(CNC[C@@H](O)[C@H](Cc2ccccc2)NC(=O)c2cc(N3CCCC3=O)c3[nH]cc(C(C)C)c3c2)c1 | 529 nM |
| COc1cccc(C(=O)NC(C=Cc2ccccc2)c2cc(Cl)c3cccnc3c2O)c1 (configuration not stated) | 859 nM |
| COC(=O)C(NC(=O)NC1CCN(c2ccnc(Nc3ccc(F)cc3)n2)C1)c1ccccc1 (configuration not stated) | 1050 nM |
| CCCc1cc(NCC)nc(Nc2ccc(C)cc2)n1 | 894 nM |
| COC(=O)c1cccc(CNCc2cccc(-c3cccc(-c4nc5ccccc5[nH]4)c3)c2)c1 | 504 nM |
| O=C(Nc1nc(-c2ccccn2)cs1)c1ccc(Br)s1 | 1060 nM |
| Cc1cccc2nc(-c3ccc(-c4ccc(NC(=O)NCc5ccccc5)cc4)s3)[nH]c12 | 768 nM |
| Cc1ccnc(NC(c2cccc(OCc3ccccc3)c2)c2ccc3cccnc3c2O)c1 (configuration not stated) | 864 nM |
| COc1ccc2c(NN=Cc3ccncc3)ccnc2c1 | 956 nM |
| COc1cccc2c(NN=Cc3ccc(Cl)cc3)ccnc12 | 814 nM |
| CC(C)CCN1CCCN(Cc2ccc(C(=O)Nc3ccc(Cl)cc3)cc2)CC1 | 796 nM |
| Cn1cncc1C(=O)Nc1cccc(-c2cccc(-c3nc4cc(F)ccc4[nH]3)c2)c1 | 493 nM |
| COc1ccc2nccc([C@@H](O)CN3CCC(NCc4nc5cc(F)cc(F)c5[nH]4)CC3)c2c1 | 573 nM |
| COc1ccc(-c2cccc(NC(=O)c3ccc(Cl)cc3)c2)cc1CN(C)CCN(C)C | 776 nM |
| COc1ccc(C2CCN(CCN3CCC(NC(=O)c4ccc(-c5cccc(C(F)(F)F)c5C(F)(F)F)cc4)CC3)CC2)c(OC)c1 | 419 nM |
| Cc1ccc(C2(C)CC(C)(C)N(C(=O)COc3ccc4ccccc4c3)c3ccccc32)cc1 (configuration not stated) | 113 nM |
| CC(C)(C)N1CCC(N(Cc2ccc(-c3ccc(C(F)(F)F)cc3)cc2)C(=O)Cn2c(CCc3cccc(F)c3F)cc(=O)c3ccccc32)CC1 | 789 nM |
| CCN1CCN(c2cc(C)c3cc(NC(=O)c4cncc(Br)c4)ccc3n2)CC1 | 656 nM |

| Structure (SMILES) | XC50 |
| --- | --- |
| Cc1ccc(OC2CCN(CCCCC3(C)C(=O)Nc4ccccc43)CC2)cc1 (configuration not stated) | 743 nM |
| N#Cc1ccc(/C=C/C(=O)NCCCCCN2CCN(C(=O)Nc3ccc(Cl)c(C(F)(F)F)c3)CC2)cc1 | 780 nM |
| COc1ccc2ncc(F)c(CCN3CCC(NCc4cc(OC)c5c(c4)OCCO5)CC3)c2n1 | 572 nM |
| O=C(NCCN1CCCCC1)c1ccc(CNC(=O)c2ccc(O)c(-c3ccc(Cl)c(Cl)c3)c2)cc1 | 900 nM |
| O=C(NCCCCN1CCC(c2c[nH]c3ccc(-c4ccccc4)cc23)CC1)c1ccc(-c2ccccc2)cc1 | 985 nM |
| Cc1cc(C(=O)N(Cc2ccc(-c3ccc(CNCCc4ccc(S(C)(=O)=O)cc4)cn3)cc2)C(C)CN(C)C)ccc1[N+](=O)[O-] (configuration not stated) | 789 nM |
| Cc1[nH]c(C)c(-c2ccc(Oc3ccccc3)cc2)c(=O)c1Br | 46.8 nM |
| Cc1cc(-c2cc(-c3ccc(OCCN(C)C)cc3)[nH]c2-c2ccc3c(c2)CCC3=NO)ccn1 | 867 nM |
| Cc1ccc(CCNCC(O)c2cccc(C(F)(F)F)c2)cc1 (configuration not stated) | 868 nM |
| CCCC(=O)NC(c1ccc(C(C)C)cc1)c1ccc2cccnc2c1O (configuration not stated) | 934 nM |
| CC1(C)NC(N)=NC(=N)N1OCCCOc1ccc([N+](=O)[O-])cc1 | 3.2 nM |
| CCOc1ccc(CN(CCc2ccc3c(c2)OCO3)Cc2cc(OC)ccc2O)cc1 | 753 nM |
| Cn1cnc2c(Nc3ccncc3)nc(-c3ccc4ccccc4c3)nc21 | 867 nM |
| O=C(/C=C/c1ccc(Cl)c(Cl)c1)NCCC(CN1CCC(c2c[nH]c3ccccc23)CC1)c1ccccc1 (configuration not stated) | 570 nM |
| Nc1nc2c(ncn2COC2COP(=O)(O)OC2)c(=O)[nH]1 (configuration not stated) | 454 nM |
| CC(C)(CNC(=O)C1CCN(CCOc2ccc(Cl)cc2)CC1)c1nc(-c2ccc(Cl)c(O)c2)c(-c2ccncc2)[nH]1 | 709 nM |
| COC(=O)c1cc(NC(=O)Nc2ccc(Cn3ncc(N4CCCNCC4)c(Cl)c3=O)cc2)cc(C(=O)OC)c1 | 708 nM |
| CCC(C)NC(=O)Nc1ccc(-c2cccc(-c3nc4cc(C(F)(F)F)ccc4[nH]3)c2)cc1 (configuration not stated) | 624 nM |
| CCOC(=O)c1cnc2cc(N3CCCC3)c(Cl)cc2c1OCC | 108 nM |
| C[C@@H](CC1CCCCC1)OC(=O)N(C)[C@H]1CCN(C#N)C1 | 219 nM |
| CC(=O)C1=NN(c2ccc(C)cc2)C(c2cccs2)N1c1ccccc1 (configuration not stated) | 338 nM |
| CCOc1ccc2c(=NN=Cc3ccccc3OC)cc(C)[nH]c2c1 | 496 nM |
| COc1ccc2nccc([C@@H](O)CN3CCC(NC(=O)C(c4cc5ccccc5o4)N4CCN(c5ccc(F)cc5)CC4)CC3)c2c1 (some centres not stated) | 197 nM |
| Cn1nc(-c2ccc(CN[C@@H]3CCc4ccc(O)cc43)cc2)c2cnc(NCCCN3CCCC3)nc21 | 797 nM |
| CCCCCC(C)N/C(=N/c1cccc(Cl)c1Cl)Nc1ccc(C#N)cc1O (configuration not stated) | 805 nM |

| Structure (SMILES) | XC50 |
| --- | --- |
| COc1cc2c(cc1OCCN1CCC(N3CCCC3)CC1)N(C(=O)/C=C/c1ccccc1Cl)CC2 | 659 nM |
| OC(CNc1ccnc(Nc2cccc(Cl)c2)n1)c1cccc(F)c1 (configuration not stated) | 973 nM |
| Cc1cccc2nc(-c3cccc(-c4ccc(NC(=O)C5CC(=O)Nc6ccccc65)cc4)c3)[nH]c12 (configuration not stated) | 685 nM |
| CC1CCCC(NC(=O)CCOc2ccccc2)C1 (configuration not stated) | 882 nM |
| Cc1cccc2nc(-c3ccc(-c4cccc(CNCc5ccc(S(C)(=O)=O)cc5)c4)s3)[nH]c12 | 334 nM |
| Cc1[nH]c(C)c(-c2ccc(CCc3cccc(C(F)(F)F)c3)nc2)c(=O)c1Cl | 101 nM |
| CC1(C)NC(N)=NC(=N)N1OCc1nc(N)nc(Nc2ccccc2)n1 | 274 nM |
| COc1ccccc1CN1CCC(NC(=O)c2ccc(-c3ccc(N(C)C)cc3)s2)CC1 | 958 nM |
| CCOC(=O)CNC(=O)c1cc(=O)c2ccccc2o1 | 210 nM |
| O=C(/C=C/c1ccc(Cl)c(Cl)c1)NCCCCCCN1CCN(C(=O)Nc2ccc(C(F)(F)F)cc2)CC1 | 397 nM |
| CCCCCCNc1cc(C)nc2ccc(OC)cc12 | 552 nM |
| O=[N+]([O-])c1ccc(-c2nc3cc(C4=NC5CCCCC5N4)ccc3[nH]2)cc1 (configuration not stated) | 691 nM |
| CCCCCC(NCCCC)c1ccc(OCCOc2ccc(C(CCCCC)NCCCC)cc2)cc1 (configuration not stated) | 1240 nM |
| CC(=O)N1c2ccccc2C(C)=CC1(C)C | 938 nM |
| COc1ccc(NC(=O)/C=C/c2ccc(Cl)c(C(F)(F)F)c2)cc1OCCN(C(C)C)C(C)C | 626 nM |
| CCN(CCNC(=O)Cn1c(C)cc2cc([N+](=O)[O-])ccc21)c1cccc(C)c1 | 1010 nM |
| CCNC(=O)N[C@@H]1CN[C@@H](C#Cc2cc3c(Nc4ccc(OCc5cccc(F)c5)c(Cl)c4)ncnc3s2)C1 | 1010 nM |
| O=C(Nc1cc(Cl)cc(Cl)c1)Nc1ccnc2ccccc12 | 745 nM |
| O=C(CNC1CCCCC1)Nc1cccc(C(=O)Nc2cccc(C(F)(F)F)c2)c1 | 416 nM |
| CC(=O)Nc1ccc(CN(Cc2ccc(OC(C)(C)C)cc2)Cc2ccc3c(c2)OCCO3)cc1 | 927 nM |
| Cn1ncc2c3c(CCN4CCC(NCc5cc6c(cn5)OCC6)CC4)c(Cl)cnc3ccc21 | 881 nM |
| O=[N+]([O-])c1cccc(CNC2CCN(Cc3ccc(Cl)c(Cl)c3)CC2)c1 | 456 nM |
| O=C(Nc1ccc(C(F)(F)F)cc1)c1cccc(S(=O)(=O)NCC2CCCN(CC3CCCCC3)C2)c1 (configuration not stated) | 750 nM |
| COc1ccc(CCNCCCCNCCc2ccc(OC)c3ccccc23)c2ccccc12 | 453 nM |
| COc1cc(CCCON2C(=N)N=C(N)NC2(C)C)cc(OC)c1OC | 39.1 nM |

| Structure (SMILES) | XC50 |
| --- | --- |
| O=C(/C=C/c1ccc(Cl)c(Cl)c1)NCCCCCN1CCC(NC(=O)c2ccc(F)cc2F)CC1 | 759 nM |
| O=C(Nc1ccc(Cl)cc1)Nc1ccc(-c2csc(-c3nc4ccccc4[nH]3)c2)cc1 | 799 nM |
| Cc1ccc(CN2CCCCC(NC(=O)c3cc4ccccc4s3)C2)cc1 (configuration not stated) | 900 nM |
| O=S(=O)(c1ccccc1)C1CC1 | 724 nM |
| COc1cc2c(cc1S(=O)(=O)c1ccc(NC(=O)c3cc4ccccc4s3)cc1)CCN(C)CC2 | 837 nM |
| Cc1cc(C2CCN(CCCCNC(=O)c3ccc(NC(=O)c4ccc(Cl)cc4)cc3)CC2)c(C)cc1OCc1ccccn1 | 801 nM |
| Cc1cc(-c2cccc(CNC3CCN(C)CC3)c2)ccc1S(=O)(=O)NCCN1CCCC1 | 977 nM |
| CCc1cn2c3c(cc(C(=O)N[C@@H](Cc4ccccc4)[C@H](O)CNCc4ccccc4C)cc13)N(C)S(=O)(=O)CC2 | 271 nM |
| CN1CCC(NCc2ccc(-c3cccc(S(=O)(=O)NCCc4ccccn4)c3)cc2)CC1 | 993 nM |
| O=C(Nc1cccc(F)c1)N(Cc1ccc(-c2cccc(CN3CCNCC3)c2)cc1)C1CCN(Cc2ccccc2)CC1 | 763 nM |
| CCOC(=O)CC[C@@H](NC(=O)c1ccc(NCc2ccc3ccc4nc(C)[nH]c(=O)c4c3c2)cc1F)C(=O)N[C@@H](Cc1c[nH]c2ccccc12)C(=O)OCC | 1030 nM |
| Cc1ccc(-c2ccc(NC(=O)N3CCc4cc(Br)c(N5CCN(C)CC5)cc43)cc2)cn1 | 1350 nM |
| Cc1ccc(CON2C(N)=NC(N)=NC23CCCCC3)c2ccccc12 | 72.6 nM |
| O=S(=O)(NCCN1CCCC1)c1cccc(-c2ccc(CNCc3ccsc3)cc2)c1 | 804 nM |
| COc1ccc(C2CC(c3cccs3)=NN2C(=O)CNc2ccccc2F)cc1OC (configuration not stated) | 631 nM |
| N#Cc1ccc(CN2CCCN(c3ccc(NC(=O)c4ccc(F)cc4)cc3)CC2)cc1 | 1280 nM |
| Cc1ccccc1CNc1noc(-c2c(-c3ccccc3)noc2C)n1 | 902 nM |
| Cc1cccc2nc(-c3ccc(-c4ccc(NC(=O)C(C)CN(C)C)cc4)s3)[nH]c12 (configuration not stated) | 409 nM |
| COc1ccc(NC(=O)N2CCc3ccc(OCCN(C(C)C)C(C)C)cc32)cc1C(F)(F)F | 969 nM |
| CC(C)N1CCN(C(=O)c2ccc(CN(C)CCCN3CCN(c4cccc(Cl)c4Cl)CC3)s2)CC1 | 994 nM |
| O=C(O)c1cccnc1Sc1ccc(Cl)cc1 | 830 nM |
| CCCCN1Cc2c(n(CC(=O)Nc3ccccc3)c3cc(-c4ccccc4)nn3c2=O)C1=O | 811 nM |
